Data: US20050250801A1, “Method of treating cancer with azaspirane compositions” (priority 2003, published 2005)
Where two headings read alike, the source gives them in different places.

Assays:
Experiment in all cases: NCI in vitro SRB assay, Melanoma
Type in all cases: cell-based
M14 = details: for CC50 / GI50: Homo sapiens
Description: (§1) An in vitro assay which tested the ability of N,N,-diethyl-8,8-dipropyl-2-azaspiro[4,5]decane-2-propanamine dimaleate (Compound 1) to inhibit the growth of known cancer cell lines was performed by the National Cancer Institute in accordance with standard procedures. See: Lin, Z. X., Hoult, J. R., and Raman, A. Sulphorhodamine B assay for measuring proliferation of a pigmented melanocyte cell line and its application to the evaluation of crude drugs used in the treatment of vitiligo. J Ethnopharmacol. 66: 141-150, 1999. Briefly, selected tumor cell lines were cultured in media containing five different concentrations of Compound 1. After 48 hours of continuous exposure, a sulforhodamine B (SRB) assay was used to estimate cell viability or growth via optical measurements.
(§2) From the measurements, the following values were determined: 1) the concentration of Compound 1 at which a tumor cell growth inhibition of 50% (relative to control) occurs (GI50), 2) the concentration of Compound 1 at which no growth occurs (total growth inhibition, TGI), and 3) the concentration of Compound 1 at which the […] (LC 50). […] FIG. 6 illustrates, graphically, tumor cell growth as a function of Compound 1 concentration of the scanned tumor cell lines.

MALME-3M = details: for CC50 / GI50: Homo sapiens, Malme-3M
Description: as §1, §2

SK-MEL-28 = details: for CC50 / GI50: Homo sapiens
Description: as §1, §2

UACC-62 = details: for CC50 / GI50: Homo sapiens
Description: as §1, §2

[1] = MALME-3M, Log10 conc -4.0 Moles/L
[2] = MALME-3M, Log10 conc -5.0 Moles/L
[3] = MALME-3M, Log10 conc -6.0 Moles/L
[4] = MALME-3M, Log10 conc -7.0 Moles/L
[5] = MALME-3M, Log10 conc -8.0 Moles/L
[6] = SK-MEL-28, Log10 conc -4.0 Moles/L
[7] = SK-MEL-28, Log10 conc -5.0 Moles/L
[8] = SK-MEL-28, Log10 conc -6.0 Moles/L
[9] = SK-MEL-28, Log10 conc -7.0 Moles/L
[10] = SK-MEL-28, Log10 conc -8.0 Moles/L
[11] = UACC-62, Log10 conc -4.0 Moles/L
[12] = UACC-62, Log10 conc -5.0 Moles/L
[13] = UACC-62, Log10 conc -6.0 Moles/L
[14] = UACC-62, Log10 conc -7.0 Moles/L
[15] = UACC-62, Log10 conc -8.0 Moles/L

CCCC1(CCC)CCC2(CCN(CCCN(CC)CC)C2)CC1.O=C(O)/C=C\C(=O)O.O=C(O)/C=C\C(=O)O [Compound 1, N,N,-diethyl-8,8-dipropyl-2-azaspiro[4,5]decane-2-propanamine dimaleate]
CC50 (M14; M14, read-out: LC50): 1.8 µM | CC50 (M14; M14, read-out: Log10 LC50 (converted)): 1.82 µM | GI50 (M14; M14, read-out: GI50): 0.203 µM | GI50 (M14; M14, read-out: Log10 GI50 (converted)): 0.204 µM | Log10 TGI (M14; M14): −6.32 | TGI (M14; M14): 0.477 µM | Mean Optical Densities (M14; M14, Log10 conc -4.0 Moles/L): 0.109 | Percent Growth (M14; M14, Log10 conc -4.0 Moles/L): −61% | Mean Optical Densities (M14; M14, Log10 conc -5.0 Moles/L): 0.086 | Percent Growth (M14; M14, Log10 conc -5.0 Moles/L): −69% | Mean Optical Densities (M14; M14, Log10 conc -6.0 Moles/L): 0.158 | Percent Growth (M14; M14, Log10 conc -6.0 Moles/L): −43% | Mean Optical Densities (M14; M14, Log10 conc -7.0 Moles/L): 0.838 | Percent Growth (M14; M14, Log10 conc -7.0 Moles/L): 92% | Mean Optical Densities (M14; M14, Log10 conc -8.0 Moles/L): 0.884 | Percent Growth (M14; M14, Log10 conc -8.0 Moles/L): 99% | CC50 (MALME-3M; read-out: LC50): 5.9 µM | CC50 (MALME-3M; read-out: Log10 LC50 (converted)): 5.89 µM | GI50 (MALME-3M; read-out: GI50): 1.6 µM | GI50 (MALME-3M; read-out: Log10 GI50 (converted)): 1.58 µM | Log10 TGI (MALME-3M; MALME-3M): −5.51 | TGI (MALME-3M; MALME-3M): 3.07 µM | Mean Optical Densities (MALME-3M; [1]): 0.084 | Percent Growth (MALME-3M; [1]): −91% | Mean Optical Densities (MALME-3M; [2]): 0.089 | Percent Growth (MALME-3M; [2]): −91% | Mean Optical Densities (MALME-3M; [3]): 1.108 | Percent Growth (MALME-3M; [3]): 86% | Mean Optical Densities (MALME-3M; [4]): 1.047 | Percent Growth (MALME-3M; [4]): 55% | Mean Optical Densities (MALME-3M; [5]): 1.103 | Percent Growth (MALME-3M; [5]): 84% | CC50 (SK-MEL-28; SK-MEL-28, read-out: LC50): 4.86 µM | CC50 (SK-MEL-28; SK-MEL-28, read-out: Log10 LC50 (converted)): 4.9 µM | GI50 (SK-MEL-28; SK-MEL-28, read-out: GI50): 0.561 µM | GI50 (SK-MEL-28; SK-MEL-28, read-out: Log10 GI50 (converted)): 0.562 µM | Log10 TGI (SK-MEL-28; SK-MEL-28): −5.72 | TGI (SK-MEL-28; SK-MEL-28): 1.89 µM | Mean Optical Densities (SK-MEL-28; [6]): 0.026 | Percent Growth (SK-MEL-28; [6]): −95% | Mean Optical Densities (SK-MEL-28; [7]): 0.061 | Percent Growth (SK-MEL-28; [7]): −88% | Mean Optical Densities (SK-MEL-28; [8]): 0.846 | Percent Growth (SK-MEL-28; [8]): 34% | Mean Optical Densities (SK-MEL-28; [9]): 1.473 | Percent Growth (SK-MEL-28; [9]): 98% | Mean Optical Densities (SK-MEL-28; [10]): 1.301 | Percent Growth (SK-MEL-28; [10]): 80% | CC50 (UACC-62; UACC-62, read-out: LC50): 2.53 µM | CC50 (UACC-62; UACC-62, read-out: Log10 LC50 (converted)): 2.51 µM | GI50 (UACC-62; UACC-62, read-out: GI50): 0.218 µM | GI50 (UACC-62; UACC-62, read-out: Log10 GI50 (converted)): 0.219 µM | Log10 TGI (UACC-62; UACC-62): −6.19 | TGI (UACC-62; UACC-62): 0.642 µM | Mean Optical Densities (UACC-62; [11]): 0.060 | Percent Growth (UACC-62; [11]): −89% | Mean Optical Densities (UACC-62; [12]): 0.034 | Percent Growth (UACC-62; [12]): −94% | Mean Optical Densities (UACC-62; [13]): 0.421 | Percent Growth (UACC-62; [13]): −21% | Mean Optical Densities (UACC-62; [14]): 1.379 | Percent Growth (UACC-62; [14]): 86% | Mean Optical Densities (UACC-62; [15]): 1.375 | Percent Growth (UACC-62; [15]): 85%
